Patent US9533973B2, “Allosteric modulators of 5-hydroxytryptamine 2C receptor (5-HT2CR)” (THE BOARD OF REGENTS OF THE UNIVERSITY OF TEXAS SYSTEM, priority 2011, dated 2017)

What was measured:
5-HT2CR [1] = target: T1, 5-HT2CR (Homo sapiens, UniProt P28335); test: 5-HT induced intracellular calcium (Cai++) release assay in live 5-HT2CR-CHO cells; format: cell-based; design: expressed in transfected cells
T1 sequence (P28335 33-458): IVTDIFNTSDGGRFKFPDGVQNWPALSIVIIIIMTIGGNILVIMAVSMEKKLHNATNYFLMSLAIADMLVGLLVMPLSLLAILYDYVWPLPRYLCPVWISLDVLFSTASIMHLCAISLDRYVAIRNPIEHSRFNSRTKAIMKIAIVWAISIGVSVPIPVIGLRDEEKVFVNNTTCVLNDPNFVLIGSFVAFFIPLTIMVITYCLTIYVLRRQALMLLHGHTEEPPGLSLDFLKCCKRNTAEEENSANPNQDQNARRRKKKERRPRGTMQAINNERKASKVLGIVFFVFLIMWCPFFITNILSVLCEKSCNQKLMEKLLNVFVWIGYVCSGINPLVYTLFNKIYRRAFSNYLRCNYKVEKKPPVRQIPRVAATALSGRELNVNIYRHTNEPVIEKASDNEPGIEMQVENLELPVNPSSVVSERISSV
Procedure: Selected results for the biological characterization of the synthesized compounds can be found in Ding et al., ACS Chem. Neurosci., 3, 538-545, 2012, and also described herein. The biological activity is assessed using an intracellular calcium (Cai^++) release assay. The best-characterized intracellular signaling pathway of the 5-HT2CR is the activation of phospholipase C (PLCβ) via Gαq/11 proteins and the production of diacylglycerol (DAG) and inositol-1,4,5-trisphosphate (IP3), leading to increased Cai^++ release from intracellular stores (Berg et al., Neuropharmacology 55, 969-76, 2008). Functional characterization of our synthetic PNU-69176E (CYD-1-78-2) and its diastereomer CYD-1-78-1 was determined by utilizing an Cai^++ release assay in live cells in which Cai^++ levels can be regarded as an outcome measure of activation of the 5-HT2CR signaling pathway (Berg et al., Neuropharmacology 55, 969-76, 2008). […] In addition, 1 nM of compound CYD-1-78-2 enhanced the Cai^++ response at low concentrations of 5-HT [10^11-3×10^−10 M; F(15,55)=16.73, p<0.01; FIG. 2]. […] Neither compound CYD-1-78-2 [F(10,68)=0.81, n.s.] nor the diastereomer CYD-1-78-1 [F(10,34)=0.76, n.s.] in concentrations up to 10^−5 M induced Cai^++ release in the 5-HT2CR—CHO cells in the absence of 5-HT (FIG. 3). This profile for compounds CYD-1-78-2 and −1 in 5-HT2CR—CHO cells was distinguished from that seen in 5-HT2AR—CHO cells in which neither compound alone or in the presence of 5-HT (compound CYD-1-78-1, F(10,43)=0.78; compound CYD-1-78-2, F(10,55)=1.27; FIG. 4) altered Cai^++ release (Ding et al., ACS Chem. Neurosci. 3, 538-545, 2012).
The Chinese hamster ovary (CHO) cell line stably transfected with 5-HT2CR was a generous gift of K. Berg and W. Clarke (University of Texas Health Science Center, San Antonio) (K. A. Berg, W. P. Clarke, C. Sailstad, A. Saltzman and S. Maayani, Mol. Pharmacol. 1994, 46 (3), 477-484; Ding et al., ACS Chem. Neurosci. 3, 538-545, 2012). Cells were grown at 37° C., 5% CO2 and 85% relative humidity in GlutaMax α-MEM (Invitrogen, Carlsbad Calif.), 5% fetal bovine serum (Atlanta Biologicals, Atlanta Ga.), 100 μg/mL hygromycin (Mediatech, Manassas Va.) and were passaged when they reached 80% confluence.
Changes in Cai^++ levels were determined using the calcium sensitive dye Calcium 4 (FLIPR No-wash kit, Molecular Devices, Sunnyvale, Calif., part #R8142). Cells were plated in serum-replete medium at 20,000 cells/well in black-sided, clear bottom 96-well tissue culture plates and were fed ˜24 hrs later with serum-free medium. Following overnight incubation, medium was removed and replaced with 40 μL of fresh serum-free medium plus 40 μL Calcium 4 dye solution in Hank's balanced saline solution (HBSS, without CaCl2 or MgCl2) supplemented with 2.5 mM water soluble probenicid (Invitrogen) to inhibit extracellular transport of the dye. Plates were incubated for 60 min at 37° C. and 60 min at room temperature in the dark. Fluorescence (λex=485 nm, λem=525 nm) was measured with a FlexStation3 (Molecular Devices). A baseline was established for each well during the initial segment of each run. Addition of 20 μL of 5× concentrated tested compound occurred at 17 sec and fluorescence was recorded every 1.7 sec for 90 sec to determine any innate agonist activity. This first round of 90 sec recordings provided a 20 min preincubation period. […] Maximum peak height was determined by the FlexStation software (SoftMax Pro 5.2) for each well and was normalized to vehicle control.

5-HT2CR [2] = target: T1, 5-HT2CR; design: host or cells: stably transfected HEK293 cells (Im et al., Mol. Pharmacol. 64, 78-84, 2003); conditions: Im et al., 2003, cited from earlier work

For CCCCCCCCCCC[C@@H]1CCN[C@H](C(=O)N[C@@H]([C@H]2O[C@H](SC)[C@H](O)[C@@H](O)[C@H]2O)[C@H](C)Cl)C1.Cl [CYD-1-78-2], the “Cai++ release induced by 0.3 nM 5-HT in presence of compound” value (5-HT2CR [1]; 0.3 nM 5-HT (~EC20) alone gives 23.9%, 5-HTmax determined at 1 μM 5-HT) was 48.5 % of 5-HTmax, the “effect on Cai++ release induced by 0.3 nM 5-HT” value (5-HT2CR [1]; 0.3 nM 5-HT, 5-HT2CR-CHO cells) was “potentiated” and the “concentrations that significantly enhanced Cai++ release above that of 0.3 nM 5-HT alone” value (5-HT2CR [1]; 0.3 nM 5-HT, Dunnett's, p<0.05) was 10^−13-10^−7 M. For the same compound, the “effect of 1 nM compound on Cai++ response at low concentrations of 5-HT” value (5-HT2CR [1]; 1 nM compound, 5-HT 10^11-3×10^−10 M) was “enhanced”, the “effect on Cai++ release at the highest concentration utilized” value (5-HT2CR [1]; 10^−5 M compound, 0.3 nM 5-HT, p<0.05) was “reduced” and the “Cai++ release in the absence of 5-HT (intrinsic agonist activity)” value (5-HT2CR [1]; concentrations up to 10^−5 M, no 5-HT) was “n.s. and did not detect intrinsic agonist activity”. For the same compound, the “intrinsic activation of GTPγS binding and IP3 release/[3H]IP accumulation in the absence of 5-HT” value (5-HT2CR [2]; HEK293 cell line (~45 pmol/mg protein)) was “detected intrinsic activation”, the “concentrations giving positive allosteric modulation in the presence of 5-HT” value (5-HT2CR [2]) was “less than 10 μM” and the “modulation at higher concentrations in the presence of 5-HT” value (5-HT2CR [2]; concentrations above 10 μM) was “negative allosteric modulation”.
